# Source: ChEMBL document CHEMBL1201862, “PubChem BioAssay data set” (2004)
# Calls of active or inactive are those of the source.
# How the values were obtained:
# [1] = viability of uninfected HEp-2 cells – cell-based, HTS, cytotoxicity control for RSV inhibitor project, dose response (AID 2410); type: functional; settings: human respiratory syncytial virus
# [2] = biological target: T1, High affinity choline transporter 1 (Homo sapiens, UniProt Q9GZV3); assay: human choline transporter blockers, potency – cell-based, 5-point CRC, membrane potential dye, dose response (AID 504840); type: functional
# T1 sequence (Q9GZV3 whole entry): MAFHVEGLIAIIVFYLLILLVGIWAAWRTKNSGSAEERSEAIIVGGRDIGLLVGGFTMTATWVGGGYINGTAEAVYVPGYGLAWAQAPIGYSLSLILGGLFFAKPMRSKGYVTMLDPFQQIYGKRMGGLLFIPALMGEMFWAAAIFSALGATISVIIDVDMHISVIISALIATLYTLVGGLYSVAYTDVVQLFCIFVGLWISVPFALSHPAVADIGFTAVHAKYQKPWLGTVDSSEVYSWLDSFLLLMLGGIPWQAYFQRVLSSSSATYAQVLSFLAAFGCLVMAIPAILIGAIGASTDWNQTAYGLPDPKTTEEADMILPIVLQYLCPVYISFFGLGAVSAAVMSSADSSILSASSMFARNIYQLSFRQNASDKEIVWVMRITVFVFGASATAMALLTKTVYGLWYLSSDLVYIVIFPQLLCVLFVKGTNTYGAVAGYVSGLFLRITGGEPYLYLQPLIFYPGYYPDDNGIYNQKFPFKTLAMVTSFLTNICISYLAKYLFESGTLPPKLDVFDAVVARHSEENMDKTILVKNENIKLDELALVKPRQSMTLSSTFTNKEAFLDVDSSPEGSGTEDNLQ
# [3] = biological target: T1, High affinity choline transporter 1; assay: human choline transporter blockers, potency – cell-based, 10-point CRC, membrane potential dye, dose response (AID 588401); type: functional;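 also: membrane potential dye fluorescence of choline-evoked depolarization via CHT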
# [4] = biological target: T2, Interleukin-8 (Homo sapiens, UniProt P10145); assay: Dose Response confirmation of uHTS small molecule hits for cystic fibrosis induced NFkb Inhibitors in a PAF-induced IL8 counterscreen.; type: functional; settings: read-out: IC50_Mean
# T2 sequence (P10145 whole entry): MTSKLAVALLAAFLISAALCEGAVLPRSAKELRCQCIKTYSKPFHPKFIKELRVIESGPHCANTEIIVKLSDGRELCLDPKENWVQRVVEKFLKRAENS
# [5] = biological target: Genome polyprotein (dengue virus type 2, UniProt P29990); assay: flavivirus cap methylation enzyme inhibition – biochemical, confirmation dose response, primary screen (AID 588689); type: functional
# [6] = Luminescence Cell-Based Dose Confirmation HTS to Identify Activators of 5'UTR Stem-Loop Driven Alpha-Synuclein mRNA Translation in H4 Neuroglioblastoma Cells. [Related pubchem assays: 1829 (Project Summary), 1814 (Primary HTS)]; type: functional
# [7] = Luminescence Cell-Based Dose Response HTS to Identify Activators of Luciferase Translation or Activity in H4 […] Cells. [Related pubchem assays: 1829 (Project Summary), 1814 (Primary HTS)]; type: functional
# [8] = tested on: H4; assay: Luminescence Cell-Based Dose Response HTS to Identify Activators of 5'UTR Stem-Loop Driven Prion Protein mRNA Translation in H4 Neuroglioblastoma Cells. [Related pubchem assays: 1829 (Project Summary), 1814 (Primary HTS)]; type: functional; settings: Homo sapiens
# [9] = biological target: Dual specificity tyrosine-phosphorylation-regulated kinase 1A (Rattus norvegicus, UniProt Q63470); type: biochemical, Homo sapiens
# [10] = biological target: DNA dC->dU-editing enzyme APOBEC-3A (Homo sapiens, UniProt P31941); assay: Dose Response confirmation of small molecule APOBEC3A DNA Deaminase Inhibitors via a fluorescence-based single-stranded DNA deaminase assay. [Related pubchem assays (depositor defined):AID493011, AID493024]; type: functional
# [11] = biological target: DNA dC->dU-editing enzyme APOBEC-3G (Homo sapiens, UniProt Q9HC16); type: functional;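 also: Dose-response counterscreen measuring inhibition of APOBEC3G DNA deaminase activity, run while confirming APOBEC3A inhibitors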
# [12] = tested on: CHO; assay: CHO cell viability loss, potency – luminescence, cytotoxicity control for TLR9-MyD88 binding inhibitor project, dose response (AID 588339); type: functional, cell-based, hamster; settings: Cricetulus griseus;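 also: CHO cells stably coexpressing TLR9 and MyD88 fusions from primary screen; compound exposure lasted 48 hours before viability readout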
# [13] = biological target: Heat shock protein HSP 90-alpha (Homo sapiens, UniProt P07900); type: functional, organism-based
# [14] = biological target: Beta Lactamase (Pseudomonas aeruginosa, UniProt Q932Y6); assay: BLA reporter interference, concentration series – BLA reporter cells, FRET fluorescence, artefact control for TLR9-MyD88 binding inhibitor project, dose response (AID 588341); type: cell-based;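 also: cell based assay in CHO-K1 cells stably expressing beta-lactamase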
# [15] = biological target: T3, RNA-binding protein pos-1 (Caenorhabditis elegans, UniProt G5EF15); assay: disruptors of C. elegans POS-1 RNA interaction – biochemical, fluorescence polarization, dose response (AID 1964);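 also: purified POS-1 fused to maltose binding protein made in E. coli; potency of compounds blocking POS-1 binding to fluorescent RNA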
# T3 sequence (G5EF15 whole entry): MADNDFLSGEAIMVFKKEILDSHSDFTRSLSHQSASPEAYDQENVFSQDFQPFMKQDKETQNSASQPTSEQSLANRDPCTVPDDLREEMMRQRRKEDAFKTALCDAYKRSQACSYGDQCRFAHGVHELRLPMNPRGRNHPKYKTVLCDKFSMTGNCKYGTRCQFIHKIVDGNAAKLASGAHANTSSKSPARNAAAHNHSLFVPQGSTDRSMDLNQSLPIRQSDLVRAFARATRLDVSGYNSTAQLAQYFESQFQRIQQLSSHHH
# [16] = biological target: T4, Zinc finger protein mex-5 (Caenorhabditis elegans, UniProt Q9XUB2); assay: potency of MEX-5 RNA-binding blockers – biochemical, C. elegans, fluorescence polarization, dose response (AID 1960)
# T4 sequence (Q9XUB2 whole entry): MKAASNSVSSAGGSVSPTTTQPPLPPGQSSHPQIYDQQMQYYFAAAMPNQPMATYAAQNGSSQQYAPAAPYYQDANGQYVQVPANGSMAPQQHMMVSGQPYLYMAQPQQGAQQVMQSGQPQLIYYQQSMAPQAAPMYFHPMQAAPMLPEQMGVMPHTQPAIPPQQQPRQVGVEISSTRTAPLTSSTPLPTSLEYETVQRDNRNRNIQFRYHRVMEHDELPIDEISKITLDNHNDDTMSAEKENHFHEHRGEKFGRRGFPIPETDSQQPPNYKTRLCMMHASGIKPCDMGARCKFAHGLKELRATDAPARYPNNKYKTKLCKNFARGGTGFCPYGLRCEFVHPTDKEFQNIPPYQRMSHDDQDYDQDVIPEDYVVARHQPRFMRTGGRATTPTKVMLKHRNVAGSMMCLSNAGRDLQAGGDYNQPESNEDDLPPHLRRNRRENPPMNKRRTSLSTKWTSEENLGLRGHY
# [17] = biological target: T5, Rac GTPase-activating protein 1 (Homo sapiens, UniProt Q9H0H5); assay: blockers of MgcRacGAP-driven Rac1 GTP hydrolysis – biochemical, ADP Hunter fluorescence, primary and confirmatory, confirmation (AID 624330); type: functional
# T5 sequence (Q9H0H5 whole entry): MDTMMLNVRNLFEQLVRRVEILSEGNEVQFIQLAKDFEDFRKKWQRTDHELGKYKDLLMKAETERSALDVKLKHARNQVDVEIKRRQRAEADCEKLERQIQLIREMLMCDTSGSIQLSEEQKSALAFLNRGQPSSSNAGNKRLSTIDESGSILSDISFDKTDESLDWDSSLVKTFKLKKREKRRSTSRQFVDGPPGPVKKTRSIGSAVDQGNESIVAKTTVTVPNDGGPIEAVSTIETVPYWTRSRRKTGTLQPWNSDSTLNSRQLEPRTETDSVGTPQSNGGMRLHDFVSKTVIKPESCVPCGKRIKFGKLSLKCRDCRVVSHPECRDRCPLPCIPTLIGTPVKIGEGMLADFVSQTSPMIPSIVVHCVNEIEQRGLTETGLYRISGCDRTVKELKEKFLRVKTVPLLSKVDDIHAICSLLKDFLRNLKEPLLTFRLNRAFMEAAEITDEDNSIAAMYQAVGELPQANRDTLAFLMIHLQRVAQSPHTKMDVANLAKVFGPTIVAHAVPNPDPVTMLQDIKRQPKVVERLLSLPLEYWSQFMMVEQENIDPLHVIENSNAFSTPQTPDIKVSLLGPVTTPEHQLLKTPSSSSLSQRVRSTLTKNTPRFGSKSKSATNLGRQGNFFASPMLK
# [18] = Luminescence Cell-Based Dose Retest to Confirm Inhibitors of Cancer Stem Cells. [Related pubchem assays (depositor defined):AID2717, AID2721]; type: functional; settings: Homo sapiens
# [19] = biological target: T6, Cysteine protease ATG4B (Homo sapiens, UniProt Q9Y4P1); type: functional;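 also: Fluorescence-based dose-response confirmation assay measuring inhibition of ATG4B activity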
# T6 sequence (Q9Y4P1 whole entry): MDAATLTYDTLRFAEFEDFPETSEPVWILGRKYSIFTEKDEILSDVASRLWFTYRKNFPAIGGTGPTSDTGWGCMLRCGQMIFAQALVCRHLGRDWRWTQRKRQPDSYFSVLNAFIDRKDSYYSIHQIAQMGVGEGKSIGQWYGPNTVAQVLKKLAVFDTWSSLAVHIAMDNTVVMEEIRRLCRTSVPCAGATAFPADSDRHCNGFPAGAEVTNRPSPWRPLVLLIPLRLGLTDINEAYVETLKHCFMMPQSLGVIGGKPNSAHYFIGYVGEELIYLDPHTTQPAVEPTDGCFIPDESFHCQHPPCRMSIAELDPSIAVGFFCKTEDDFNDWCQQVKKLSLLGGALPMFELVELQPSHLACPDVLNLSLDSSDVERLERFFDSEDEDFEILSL
# [20] = biological target: Phospholipase A2 (Homo sapiens, UniProt P04054); type: functional;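 also: confirmatory dose-response counterscreen on phospholipase A2, testing hits that came from an ultra-high-throughput screen for ATG4B inhibitors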
# [21] = biological target: T7, DNA repair protein RAD52 homolog (Homo sapiens, UniProt P43351); type: functional, biochemical
# T7 sequence (P43351 whole entry): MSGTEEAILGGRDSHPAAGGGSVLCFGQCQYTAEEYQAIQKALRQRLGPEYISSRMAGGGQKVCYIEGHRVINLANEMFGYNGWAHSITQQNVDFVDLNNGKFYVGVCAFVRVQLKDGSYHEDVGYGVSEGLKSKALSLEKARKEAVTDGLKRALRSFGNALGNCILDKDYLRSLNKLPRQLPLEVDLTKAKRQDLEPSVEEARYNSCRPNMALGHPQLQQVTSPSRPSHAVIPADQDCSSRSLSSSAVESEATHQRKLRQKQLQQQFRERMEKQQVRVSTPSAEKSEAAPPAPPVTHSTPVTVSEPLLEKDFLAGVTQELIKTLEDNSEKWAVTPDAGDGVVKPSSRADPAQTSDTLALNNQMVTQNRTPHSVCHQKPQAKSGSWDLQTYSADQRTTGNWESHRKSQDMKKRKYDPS
# [22] = biological target: Paired box protein Pax-8 (Homo sapiens, UniProt Q06710); assay: PAX8 transcriptional activity inhibition in RMG-I – RMG-I cells, luciferase, cherry-pick, dose response (AID 687027); type: functional, cell-based;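 also: luciferase reporter driven by Pax8 target thyroperoxidase promoter measured by SteadyGlo luminescence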
# [23] = tested on: Streptococcus sp. 'group A'; assay: Streptococcus pyogenes SK(-)GAS viability under kanamycin – luminescence, BacTiterGlo, confirmation, counter-screen for streptokinase expression inhibitor project, dose response (AID 1900); type: functional, organism-based
# [24] = tested on: Streptococcus; assay: GAS UMAA2166 growth inhibition – luminescence, BacTiterGlo, counter-screen for streptokinase expression inhibitor project, dose response (AID 1915); type: functional, organism-based;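 also: potency for reduction of bacterial viability or growth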
# Sequence of DNA dC->dU-editing enzyme APOBEC-3G (Q9HC16 whole entry, the tested form may be a part): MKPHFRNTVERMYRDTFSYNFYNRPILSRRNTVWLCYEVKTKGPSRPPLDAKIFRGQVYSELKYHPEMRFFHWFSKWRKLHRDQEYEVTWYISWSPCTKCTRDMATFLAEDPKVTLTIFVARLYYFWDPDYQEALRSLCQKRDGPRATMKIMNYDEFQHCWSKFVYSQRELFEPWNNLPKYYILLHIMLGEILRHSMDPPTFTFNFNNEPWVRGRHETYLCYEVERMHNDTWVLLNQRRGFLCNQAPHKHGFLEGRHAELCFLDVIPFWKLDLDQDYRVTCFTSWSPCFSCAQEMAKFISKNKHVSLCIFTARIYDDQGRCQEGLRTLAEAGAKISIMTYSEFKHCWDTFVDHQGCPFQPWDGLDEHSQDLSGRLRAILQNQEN
# Sequence of Phospholipase A2 (P04054 whole entry): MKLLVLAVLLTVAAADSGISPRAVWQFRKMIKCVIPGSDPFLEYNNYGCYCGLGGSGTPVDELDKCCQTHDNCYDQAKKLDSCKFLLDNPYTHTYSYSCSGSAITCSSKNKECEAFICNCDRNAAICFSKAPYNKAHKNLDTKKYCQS
# Sequence of DNA dC->dU-editing enzyme APOBEC-3A (P31941 whole entry): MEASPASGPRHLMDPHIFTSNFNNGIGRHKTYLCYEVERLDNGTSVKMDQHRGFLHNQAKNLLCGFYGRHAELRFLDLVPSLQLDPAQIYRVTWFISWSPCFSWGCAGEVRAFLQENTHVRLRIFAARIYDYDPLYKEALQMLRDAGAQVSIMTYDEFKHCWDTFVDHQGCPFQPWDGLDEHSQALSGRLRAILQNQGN
# Sequence of Genome polyprotein (P29990 2492-3391 limits assumed): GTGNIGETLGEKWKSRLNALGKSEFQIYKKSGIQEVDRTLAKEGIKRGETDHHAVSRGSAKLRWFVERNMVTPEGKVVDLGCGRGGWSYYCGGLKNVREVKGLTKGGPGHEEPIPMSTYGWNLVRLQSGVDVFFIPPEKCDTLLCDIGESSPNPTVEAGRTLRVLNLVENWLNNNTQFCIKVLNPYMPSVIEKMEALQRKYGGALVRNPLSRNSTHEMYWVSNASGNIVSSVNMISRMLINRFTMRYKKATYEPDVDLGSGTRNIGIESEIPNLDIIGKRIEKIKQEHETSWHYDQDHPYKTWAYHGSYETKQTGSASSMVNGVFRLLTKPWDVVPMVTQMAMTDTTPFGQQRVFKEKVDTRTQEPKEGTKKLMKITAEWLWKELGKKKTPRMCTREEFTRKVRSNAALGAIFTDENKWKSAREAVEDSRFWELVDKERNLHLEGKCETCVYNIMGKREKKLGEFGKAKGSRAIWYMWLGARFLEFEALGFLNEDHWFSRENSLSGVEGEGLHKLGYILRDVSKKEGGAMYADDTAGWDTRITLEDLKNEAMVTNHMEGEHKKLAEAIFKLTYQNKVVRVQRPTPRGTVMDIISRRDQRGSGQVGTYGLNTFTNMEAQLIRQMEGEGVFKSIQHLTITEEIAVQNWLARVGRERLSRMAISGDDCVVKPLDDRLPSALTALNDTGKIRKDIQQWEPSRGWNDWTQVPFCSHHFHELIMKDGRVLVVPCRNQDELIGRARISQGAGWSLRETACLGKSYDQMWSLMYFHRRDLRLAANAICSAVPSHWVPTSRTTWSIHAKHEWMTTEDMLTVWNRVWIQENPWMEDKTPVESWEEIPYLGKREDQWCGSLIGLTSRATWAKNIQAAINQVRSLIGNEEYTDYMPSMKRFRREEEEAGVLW
# Sequence of Paired box protein Pax-8 (Q06710 whole entry): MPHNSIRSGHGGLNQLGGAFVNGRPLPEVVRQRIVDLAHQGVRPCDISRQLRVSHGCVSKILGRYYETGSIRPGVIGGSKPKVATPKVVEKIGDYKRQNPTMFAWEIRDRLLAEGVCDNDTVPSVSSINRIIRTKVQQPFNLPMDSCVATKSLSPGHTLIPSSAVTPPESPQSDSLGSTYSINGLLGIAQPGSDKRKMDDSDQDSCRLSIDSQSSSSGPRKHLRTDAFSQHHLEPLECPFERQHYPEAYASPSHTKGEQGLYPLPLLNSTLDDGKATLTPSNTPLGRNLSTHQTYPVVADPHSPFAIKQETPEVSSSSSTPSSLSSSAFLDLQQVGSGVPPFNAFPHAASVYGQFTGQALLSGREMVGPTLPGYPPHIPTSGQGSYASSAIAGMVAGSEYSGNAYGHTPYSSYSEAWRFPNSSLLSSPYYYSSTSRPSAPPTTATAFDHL
# Sequence of Beta Lactamase (Q932Y6 whole entry, the tested form may be a part): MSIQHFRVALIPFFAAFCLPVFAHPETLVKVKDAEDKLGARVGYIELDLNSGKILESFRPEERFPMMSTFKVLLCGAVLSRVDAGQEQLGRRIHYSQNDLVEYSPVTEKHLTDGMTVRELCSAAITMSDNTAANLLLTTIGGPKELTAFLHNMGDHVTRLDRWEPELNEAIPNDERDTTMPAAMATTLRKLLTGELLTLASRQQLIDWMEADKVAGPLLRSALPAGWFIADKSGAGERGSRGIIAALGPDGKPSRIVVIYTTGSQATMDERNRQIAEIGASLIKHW
structure (smiles),measurement,setting,value
Cc1ccc(-c2csc(NC(=O)c3ccccc3Cl)c2C(=O)O)cc1,CC50,[1],19.4 µM (active)
same,IC50,[2],2.27 µM (active)
same,IC50,[3],1.58 µM (active)
Cc1nc(N)c(C#N)c(-c2cccnc2)c1-c1ccccc1,IC50,[4],> 79 µM (inactive)
Cc1ccc(C)c(S(=O)(=O)Nc2ccccc2C(=O)Nc2ccc(S(=O)(=O)Nc3ncccn3)cc2)c1,IC50,[5],> 100 µM (active)
Nc1nc(N)nc(-c2ccc(Cl)cc2)n1,EC50,[6],12.2 µM (active)
same,EC50,[7],> 120 µM (not active)
same,EC50,[8],> 120 µM (not active)
same,AC50,[9],10.6 µM (active)
COc1cccc(CNC(=O)c2cccc(S(=O)(=O)N3CCN(C)CC3)c2)c1,IC50,[10],5.44 µM (active)
same,IC50,[11],8.69 µM (active)
Cc1cccc(N2C(=O)/C(=C\c3ccc(OC(F)F)cc3)c3ccccc3C2=O)c1,IC50,[12],40.4 µM (inactive)
same,AC50,[13],4.43 µM (active)
same,IC50,[14],3.9 µM (active)
O=C(O)c1ccccc1-c1ccc(C=C2C(=O)N(c3ccccc3)C(=S)N(c3ccccc3)C2=O)o1,EC50,[15],> 300 µM (not active)
same,EC50,[16],> 300 µM (not active)
same,IC50,[5],12.3 µM (active)
same,IC50,[17],105 µM (active)
O=C(Nc1cccc(Cl)c1N1CCCC1)c1cccc(-c2cc3ccccc3oc2=O)c1,AC50,[18],0.262 µM (active)
same,IC50,[19],0.87 µM (active)
same,IC50,[20],0.978 µM (active)
O=S(=O)(Nc1nc2ccccc2nc1N1CCc2ccccc2C1)c1ccc(Cl)cc1,IC50,[19],9.18 µM (active)
same,IC50,[20],10 µM (active)
COc1ccc(NC(=O)c2cc(-c3ccco3)nc3ccccc23)cn1,IC50,[10],16.9 µM (active)
same,IC50,[11],22.5 µM (active)
CCCCCCCCCCCCCCCC[N+](C)(C)CCl,IC50,[19],8.42 µM (active)
same,AC50,[13],5.15 µM (active)
same,IC50,[20],8.15 µM (active)
same,AC50,[21],5.5 µM (active)
CN(Cc1ccc(Cl)c(Cl)c1)C(=O)C1=CC=CN2CCS(=O)(=O)N=C12,IC50,[10],8.45 µM (active)
same,IC50,[11],12.2 µM (active)
C=CC(=O)/N=c1\sc2ccccc2n1-c1ccccc1,IC50,[2],4.37 µM (active)
same,IC50,[3],1.78 µM (active)
same,AC50,[22],1.6 µM (active)
O=C(N/N=C1/CCC/C1=C(/O)C(F)(F)F)c1ccccc1O,EC50,[23],1.44 µM (active)
same,EC50,[24],2.75 µM (active)
same,IC50,[2],2.27 µM (active)
same,IC50,[3],3.57 µM (active)
